Publication doi:10.1101/2021.09.30.462449v1 (biorxiv, 2021)

How the values were obtained:
Assay in all cases: biochemical
Details in all cases: read-out: % inhibition mean (Lanthascreen)
[1] = target: ALK F1174L (Homo sapiens, UniProt Q9UM73, F1174L)
[2] = target: ALK L1196M (Homo sapiens, UniProt Q9UM73, L1196M)
[3] = target: AMPK (A1/B2/G1) (Homo sapiens, UniProt Q13131)
[4] = target: BMPR1B (ALK6) (Homo sapiens, UniProt O00238)
[5] = target: CAMK2G (CaMKII gamma) (Homo sapiens, UniProt Q13555)
Chain of CAMK2G (CaMKII gamma) (Q13555 whole entry): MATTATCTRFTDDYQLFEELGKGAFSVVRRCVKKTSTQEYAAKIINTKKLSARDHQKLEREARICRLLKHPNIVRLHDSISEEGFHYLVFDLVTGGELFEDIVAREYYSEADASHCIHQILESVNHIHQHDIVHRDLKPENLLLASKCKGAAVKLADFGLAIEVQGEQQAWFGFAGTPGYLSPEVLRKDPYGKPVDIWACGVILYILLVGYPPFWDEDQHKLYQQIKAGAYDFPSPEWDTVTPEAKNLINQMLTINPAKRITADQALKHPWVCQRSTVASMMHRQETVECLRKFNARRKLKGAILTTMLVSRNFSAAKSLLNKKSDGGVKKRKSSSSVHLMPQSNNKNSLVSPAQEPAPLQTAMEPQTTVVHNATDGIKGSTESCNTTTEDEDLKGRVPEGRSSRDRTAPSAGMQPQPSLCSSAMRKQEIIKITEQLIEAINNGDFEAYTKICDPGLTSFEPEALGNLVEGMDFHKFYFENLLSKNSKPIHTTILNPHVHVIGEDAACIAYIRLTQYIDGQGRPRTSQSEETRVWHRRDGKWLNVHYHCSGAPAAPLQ

[6] = target: CAMKK1 (CAMKKA) (Homo sapiens, UniProt Q8N5S9)
[7] = target: CDK2/cyclin A1 (Homo sapiens, UniProt P24941)
[8] = target: CDK5 (Inactive) (Homo sapiens, UniProt Q00535)
Chain of CDK5 (Inactive) (Q00535 whole entry): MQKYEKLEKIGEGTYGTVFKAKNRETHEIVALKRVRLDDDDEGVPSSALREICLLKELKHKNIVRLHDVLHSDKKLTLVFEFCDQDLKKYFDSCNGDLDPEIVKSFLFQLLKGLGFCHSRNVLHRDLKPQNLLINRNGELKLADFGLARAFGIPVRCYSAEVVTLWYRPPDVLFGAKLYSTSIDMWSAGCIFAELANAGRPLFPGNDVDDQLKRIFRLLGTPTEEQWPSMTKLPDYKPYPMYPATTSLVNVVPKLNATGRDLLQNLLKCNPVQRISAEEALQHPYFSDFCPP

[9] = target: CDK9 (Inactive) (Homo sapiens, UniProt P50750)
Chain of CDK9 (Inactive) (P50750 whole entry): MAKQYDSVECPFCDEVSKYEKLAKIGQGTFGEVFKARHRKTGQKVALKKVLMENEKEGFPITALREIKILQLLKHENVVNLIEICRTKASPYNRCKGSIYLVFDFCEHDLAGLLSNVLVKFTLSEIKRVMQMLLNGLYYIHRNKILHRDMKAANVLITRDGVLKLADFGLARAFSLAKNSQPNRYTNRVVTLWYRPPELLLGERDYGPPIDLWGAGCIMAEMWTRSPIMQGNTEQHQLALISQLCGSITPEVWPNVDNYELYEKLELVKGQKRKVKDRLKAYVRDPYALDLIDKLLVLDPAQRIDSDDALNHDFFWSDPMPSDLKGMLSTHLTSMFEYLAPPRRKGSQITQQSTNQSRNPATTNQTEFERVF

[10] = target: FGFR3 K650M (Homo sapiens, UniProt P22607, K650M)
[11] = target: KIT A829P (Homo sapiens, UniProt P10721, A829P)
[12] = target: KIT D820E (Homo sapiens, UniProt P10721, D820E)
[13] = target: LIMK1 (Homo sapiens, UniProt P53667)
[14] = target: MAP2K6 (MKK6) S207E T211E (Homo sapiens, UniProt P52564, S207E/T211E)
[15] = target: MAP3K3 (MEKK3) (Homo sapiens, UniProt Q99759)
Chain of MAP3K3 (MEKK3) (Q99759 whole entry): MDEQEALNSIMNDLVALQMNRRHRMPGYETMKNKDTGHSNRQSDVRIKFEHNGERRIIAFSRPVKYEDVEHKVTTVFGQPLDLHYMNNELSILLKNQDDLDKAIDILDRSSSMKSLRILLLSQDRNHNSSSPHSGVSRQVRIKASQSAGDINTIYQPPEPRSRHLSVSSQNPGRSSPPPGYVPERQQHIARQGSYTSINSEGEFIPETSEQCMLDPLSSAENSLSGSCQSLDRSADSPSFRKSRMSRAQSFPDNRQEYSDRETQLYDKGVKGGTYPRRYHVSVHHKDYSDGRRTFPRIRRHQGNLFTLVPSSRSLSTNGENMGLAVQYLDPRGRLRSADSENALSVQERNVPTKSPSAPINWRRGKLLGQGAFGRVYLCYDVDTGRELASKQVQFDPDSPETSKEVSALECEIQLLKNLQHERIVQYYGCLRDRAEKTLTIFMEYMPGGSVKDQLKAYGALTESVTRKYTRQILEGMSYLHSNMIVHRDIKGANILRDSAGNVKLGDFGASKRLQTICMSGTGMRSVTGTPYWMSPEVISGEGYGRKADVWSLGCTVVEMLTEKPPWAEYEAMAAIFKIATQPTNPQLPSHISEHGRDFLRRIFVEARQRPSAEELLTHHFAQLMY

[16] = target: MAP3K5 (ASK1) (Homo sapiens, UniProt Q99683)
[17] = target: MAP4K1 (HPK1) (Homo sapiens, UniProt Q92918)
[18] = target: MERTK (cMER) A708S (Homo sapiens, UniProt Q12866, A708S)
[19] = target: MKNK2 (MNK2) (Homo sapiens, UniProt Q9HBH9)
[20] = target: PKN2 (PRK2) (Homo sapiens, UniProt Q16513)
[21] = target: PLK4 (Homo sapiens, UniProt O00444)
[22] = target: RAF1 (cRAF) Y340D Y341D (Homo sapiens, UniProt P04049, Y340D/Y341D)
Chain of RAF1 (cRAF) Y340D Y341D (P04049 whole entry Y340D/Y341D): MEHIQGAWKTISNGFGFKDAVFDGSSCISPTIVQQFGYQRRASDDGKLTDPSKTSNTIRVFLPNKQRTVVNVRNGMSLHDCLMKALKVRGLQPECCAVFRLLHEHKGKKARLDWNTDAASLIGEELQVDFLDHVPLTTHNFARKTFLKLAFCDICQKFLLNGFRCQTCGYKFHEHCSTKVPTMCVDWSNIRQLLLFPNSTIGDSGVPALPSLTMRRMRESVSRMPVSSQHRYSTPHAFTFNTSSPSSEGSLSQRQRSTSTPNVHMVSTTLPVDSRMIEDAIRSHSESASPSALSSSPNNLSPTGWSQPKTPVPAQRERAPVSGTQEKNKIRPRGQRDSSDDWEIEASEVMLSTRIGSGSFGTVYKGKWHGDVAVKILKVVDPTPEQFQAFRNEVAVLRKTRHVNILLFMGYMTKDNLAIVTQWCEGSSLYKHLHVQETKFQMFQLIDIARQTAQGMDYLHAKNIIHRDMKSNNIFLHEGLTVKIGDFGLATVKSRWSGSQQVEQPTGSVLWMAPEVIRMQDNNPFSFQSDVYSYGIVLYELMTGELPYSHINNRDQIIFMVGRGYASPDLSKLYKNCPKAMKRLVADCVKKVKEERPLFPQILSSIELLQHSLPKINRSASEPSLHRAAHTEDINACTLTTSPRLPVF

[23] = target: TEC (Homo sapiens, UniProt P42680)
Chain of TEC (P42680 whole entry): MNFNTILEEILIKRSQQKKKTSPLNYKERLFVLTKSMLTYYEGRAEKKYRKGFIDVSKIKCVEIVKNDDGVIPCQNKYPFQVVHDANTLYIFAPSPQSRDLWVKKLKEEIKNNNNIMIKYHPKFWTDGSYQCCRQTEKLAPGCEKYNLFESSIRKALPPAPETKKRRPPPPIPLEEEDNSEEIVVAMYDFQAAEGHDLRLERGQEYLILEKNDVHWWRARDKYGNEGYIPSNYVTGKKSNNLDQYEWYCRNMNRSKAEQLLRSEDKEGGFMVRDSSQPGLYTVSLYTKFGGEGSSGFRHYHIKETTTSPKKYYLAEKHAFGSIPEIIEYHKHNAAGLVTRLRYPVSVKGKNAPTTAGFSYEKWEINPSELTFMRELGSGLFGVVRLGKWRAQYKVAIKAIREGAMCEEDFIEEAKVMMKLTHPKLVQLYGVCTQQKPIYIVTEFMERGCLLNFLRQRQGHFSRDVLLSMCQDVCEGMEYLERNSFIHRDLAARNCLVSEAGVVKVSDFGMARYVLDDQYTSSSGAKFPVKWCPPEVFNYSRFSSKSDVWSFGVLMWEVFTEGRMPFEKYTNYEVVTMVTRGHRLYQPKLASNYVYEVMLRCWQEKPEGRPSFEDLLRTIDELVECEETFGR

[24] = target: TNIK (Homo sapiens, UniProt Q9UKE5)
[25] = target: ULK2 (Homo sapiens, UniProt Q8IYT8)
[26] = target: ULK3 (Homo sapiens, UniProt Q6PHR2)
[27] = target: WNK1 (Homo sapiens, UniProt Q9H4A3)
[28] = target: WNK3 (Homo sapiens, UniProt Q9BYP7)

Chain of ALK F1174L (Q9UM73 whole entry F1174L): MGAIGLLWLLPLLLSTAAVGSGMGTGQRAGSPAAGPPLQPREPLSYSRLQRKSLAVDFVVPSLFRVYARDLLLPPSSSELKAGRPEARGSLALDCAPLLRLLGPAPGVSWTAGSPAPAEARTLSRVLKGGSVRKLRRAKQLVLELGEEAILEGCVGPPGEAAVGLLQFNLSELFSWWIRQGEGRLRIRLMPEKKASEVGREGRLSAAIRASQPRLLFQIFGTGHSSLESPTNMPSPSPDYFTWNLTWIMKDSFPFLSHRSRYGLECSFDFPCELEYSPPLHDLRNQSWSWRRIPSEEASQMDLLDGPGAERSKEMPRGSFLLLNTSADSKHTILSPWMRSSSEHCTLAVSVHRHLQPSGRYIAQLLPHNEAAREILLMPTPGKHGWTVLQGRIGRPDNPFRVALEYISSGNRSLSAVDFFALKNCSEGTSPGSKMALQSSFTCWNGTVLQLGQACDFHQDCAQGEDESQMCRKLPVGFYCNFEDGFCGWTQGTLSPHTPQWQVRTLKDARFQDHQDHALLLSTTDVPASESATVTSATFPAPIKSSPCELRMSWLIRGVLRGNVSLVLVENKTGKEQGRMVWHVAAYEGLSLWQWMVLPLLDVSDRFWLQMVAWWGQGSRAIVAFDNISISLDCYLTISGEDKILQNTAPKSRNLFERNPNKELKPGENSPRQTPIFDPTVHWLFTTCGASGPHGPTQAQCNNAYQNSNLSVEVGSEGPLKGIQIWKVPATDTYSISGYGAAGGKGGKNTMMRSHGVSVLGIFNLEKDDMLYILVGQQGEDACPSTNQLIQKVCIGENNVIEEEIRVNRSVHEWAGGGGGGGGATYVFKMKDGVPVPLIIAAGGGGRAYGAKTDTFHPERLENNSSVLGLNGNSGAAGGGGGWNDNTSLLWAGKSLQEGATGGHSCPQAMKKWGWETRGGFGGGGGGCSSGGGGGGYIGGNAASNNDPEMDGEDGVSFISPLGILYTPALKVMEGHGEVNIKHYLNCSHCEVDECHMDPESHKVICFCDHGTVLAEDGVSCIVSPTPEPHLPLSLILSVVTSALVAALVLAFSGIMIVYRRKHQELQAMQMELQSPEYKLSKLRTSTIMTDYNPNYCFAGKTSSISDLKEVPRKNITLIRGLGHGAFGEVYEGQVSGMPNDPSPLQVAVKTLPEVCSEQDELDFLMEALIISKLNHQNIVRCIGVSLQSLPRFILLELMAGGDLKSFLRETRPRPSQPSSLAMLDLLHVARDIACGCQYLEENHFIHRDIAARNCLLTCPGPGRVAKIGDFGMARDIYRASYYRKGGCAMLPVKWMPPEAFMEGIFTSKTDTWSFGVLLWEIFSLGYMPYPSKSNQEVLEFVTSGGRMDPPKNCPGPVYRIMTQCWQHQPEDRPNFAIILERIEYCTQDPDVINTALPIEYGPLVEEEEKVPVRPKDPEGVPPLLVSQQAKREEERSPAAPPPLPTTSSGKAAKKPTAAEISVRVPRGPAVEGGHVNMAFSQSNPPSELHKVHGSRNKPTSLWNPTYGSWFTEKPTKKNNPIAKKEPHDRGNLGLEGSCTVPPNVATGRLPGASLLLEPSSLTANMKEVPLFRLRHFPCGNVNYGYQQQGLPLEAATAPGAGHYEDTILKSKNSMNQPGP
Chain of ALK L1196M (Q9UM73 whole entry L1196M): as the sequence (Q9UM73 whole entry F1174L) above, with L1174F, L1196M counted along it

## COc1ccc2nc3cc(Cl)ccc3c(Nc3cc(CN4CCCC4)c(O)c(CN4CCCC4)c3)c2n1 [Pyronaridine, 4-[(7-Chloro-2-methoxybenzo[b][1,5]naphthyridin-10-yl)amino]-2,6-bis(1-pyrrolidinylmethyl)phenol phosphate (1:4)]
[1]
  inhibition at 1 µM: 8%
[2]
  inhibition at 1 µM: -3%
[3]
  inhibition at 1 µM: -2%
[4]
  inhibition at 1 µM: -3%
[5]
  inhibition at 1 µM: -1%
[6]
  inhibition at 1 µM: 15%
[7]
  inhibition at 1 µM: 5%
[8]
  inhibition at 1 µM: -1%
[9]
  inhibition at 1 µM: -10%
[10]
  inhibition at 1 µM: -4%
[11]
  inhibition at 1 µM: -9%
[12]
  inhibition at 1 µM: -4%
[13]
  inhibition at 1 µM: -7%
[14]
  inhibition at 1 µM: 10%
[15]
  inhibition at 1 µM: -3%
[16]
  inhibition at 1 µM: -11%
[17]
  inhibition at 1 µM: 1%
[18]
  inhibition at 1 µM: 0%
[19]
  inhibition at 1 µM: 2%
[20]
  inhibition at 1 µM: 6%
[21]
  inhibition at 1 µM: 6%
[22]
  inhibition at 1 µM: -5%
[23]
  inhibition at 1 µM: 7%
[24]
  inhibition at 1 µM: -1%
[25]
  inhibition at 1 µM: 2%
[26]
  inhibition at 1 µM: 8%
[27]
  inhibition at 1 µM: 4%
[28]
  inhibition at 1 µM: 7%
